# According to US11891422B2 (priority 2018, dated 2024):
# Like-named read-outs stand apart in the source and are kept apart here.
# Legend:
# BC-1 cells = experiment: Live cell confocal microscopy cellular uptake; type: in vitro ADME
# Protocol: Live Cell Confocal Microscopy and Analysis: BC1 PEL cells in the exponential phase were resuspended in RPMI 1640 media supplemented with 50 μg/ml gentamicin in the absence of serum and treated with a final concentration of 0.125% DMSO or 500 nM FITC-labeled peptide at 37° C., cold or in the presence of 10 mM sodium azide. Cells were then added to 35 mm glass bottom MatTek poly-lysine coated plates (p356c-0-10C) and immunofluorescence images were captured using LSM880 confocal miscroscope with Airyscan resolution detector, spectral detector and incubation. Images were processed using Fiji software (FIG. 14).
# Inhibition of the vFLIP-NEMO complex formation in KSHV-infected PEL cells requires the inhibitor to be cell permeable. […] In order to probe cellular entry mechanism, we performed cellular uptake experiments at 4° C. as well as with sodium azide poisoning to reduce ATP-mediated active transport mechanisms without affecting overall cellular viablity (Patgiri et al., Nat. Chem. Biol. 7:585-7 (2011); which is hereby incorporated by reference in its entirety).
# Serum stability assay = type: in vitro ADME; conditions: 25% fetal bovine serum in RPMI, 60 μM peptide, read-out: initial peptide remaining intact
# Protocol: Time points of 30 minutes, 1 hr, 2 hr, 8 hr, and 24 hrs were analyzed in triplicate. Each reaction was started upon addition of FBS to 60 μM peptide. Reactions were quenched at time points with addition of 100% EtOH, chilled on ice for 10 minutes, and pelleted at 12,000 RPM. Supernatant was injected onto an Agilent analytical HPLC equipped with an XTerra RP18 3.5 μm 2.1×150 mm column (Part No. 186000410) and visualized at 220 nm. Integration of peak areas was used to determine percent degradation of peptides. Mass of cleaved products were determined using Matrix assisted laser desorption ion time of flight (MALDI-TOF) spectroscopy.
# [1] = Circular dichroism thermal denaturation; type: physicochemical; conditions: CD spectra between 5-95° C.
# From the text: (§1) Data plotted represent mean±s.e.m of three replicate experiments. TR-FRET signal was normalized to DMSO control and expressed as percent inhibition. […] Data shown represent mean±s.d. of two independent experiments performed in triplicate. Data was normalized to c. (FIG. 3C) The conformation of the coiled coil mimics was investigated by circular dichroism spectroscopy in aqueous buffer. The reported values represent mean±s.e.m of two independent experiments. […] The circular dichroism spectra were collected at regular intervals between 5-95° C. Data shown represent one experiment where scans were recorded five times over the temperature range. […] Peptide degradation was probed over 24 h by HPLC. […] Cells were visualized by fluorescence microscopy after 1 hour incubation. […] Hoechst stain was used to detect the nuclei. Representative live confocal images from at least three replicate experiments are shown.
# Circular Dichroism Spectroscopy: CD spectra were recorded on a Jasco J-1500 Circular Dichroism Spectrophotometer equipped with a temperature controller using 1 mm length cells and a scan speed of 4 nm/min at 298K. The spectra were averaged over 4 scans with the background subtracted to the analogous experimental conditions. […] The concentrations of each peptide were determined by the UV absorption at 280 nm.
# [2] = tested on: BC-3-luc PEL cells xenograft; experiment: PEL in vivo xenograft mouse model; design: species or system NOD/SCID mice; conditions: 20 mg/kg intraperitoneally, 9 consecutive days
# Protocol: PEL in Vivo Xenograft Mouse Model Study: […] BC3NFRen-luc #3 were injected intraperitoneally into 4-6 week-old male NOD/SCID mice. […] The tumor burden or bioluminescence (photons/s/cm^2/steradian) was monitored by live imaging and weighing, with the sacrificial endpoint determined to be a net gain or loss of 10% body weight over a week.
# We next tested its antitumor activity in vivo. We injected 10×10^6 BC-3-luc PEL cells into the peritoneal cavity of NOD-SCID mice and monitored tumor burden by bioluminescence imaging.
# BC-3 PEL cell line [3] = experiment: CellTiter-Glo cell viability assay, BC-3; conditions: read-out: BC-3 LC50 (μM)
# Protocol: Media was supplemented with 20% FBS 3 hours post-peptide treatment.
# (§2) Cytotoxicity of these hits was assayed using CellTiter Glo viability assay.
# in vitro = conditions: human
# Protocol: as §2
# full length NEMO = experiment: Fluorescence polarization direct binding assay, specificity over NEMO; conditions: FITC-labeled peptide
# From the text: as §1
# The polarization experiments were performed using a DTX 880 Multimode Detector (Beckman) at 25° C. with excitation and emission wavelengths of 485 and 525 nm, respectively. Each polarization experiment was performed in a 96-well round bottom plate (Greiner) in assay buffer: Tris glycerol pluronic acid. The binding affinity (KD) values reported for each peptide are from experiments performed in triplicate. […]
# [4] = tested on: Namalwa Burkitt lymphoma cell line; experiment: CellTiter-Glo cell viability assay, Namalwa; type: cell-based
# [5] = tested on: PEL cell lines (BC-1, BC-3, BCBL-1); experiment: CellTiter-Glo cytotoxicity in panel of PEL cell lines; type: cell-based; conditions: FIG. 5A
# [6] = target: T1, vFLIP/NEMO complex in vFLIP-FLAG doxycycline-inducible Namalwa cell line (Human herpesvirus 8 type P, UniProt F5HEZ4); experiment: Co-immunoprecipitation of vFLIP-FLAG and NEMO; type: cell-based; conditions: 24 hrs treatment, increasing concentrations
# T1 construct: expressed in transfected cells; host or cells: Namalwa Burkitt lymphoma cells, lentivirally transduced (pLVX-TetOne-puro), doxycycline-induced
# T1 sequence (F5HEZ4 whole entry, one chain of several): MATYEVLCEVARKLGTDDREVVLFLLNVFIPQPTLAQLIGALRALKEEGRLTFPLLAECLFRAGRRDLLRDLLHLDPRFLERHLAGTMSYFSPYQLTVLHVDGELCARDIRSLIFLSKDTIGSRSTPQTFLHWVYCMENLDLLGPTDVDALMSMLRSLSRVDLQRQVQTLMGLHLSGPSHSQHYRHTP
# Protocol: Co-Immunoprecipiation: FLAG-tagged WT vFLIP or a vFLIP NF-κB dead mutant (vFLIP^AAA(58-60)) inducible Namalwa Burkitt lymphoma cell lines were used. Expression of WT vFLIP or mutant vFLIP was attained by treating cells with 1 μg/mL doxcycline for 24 hrs. […] 4 hours post-treatment, media was supplemented with 20% FBS and treatment continued for another 24 hrs. Next day, uninduced Namalwa WT vFLIP cell line, treated Namalwa WT vFLIP expressing cell lines as well as Namalwa expressing mutant vFLIP and parental Namalwa cell lines were harvested, washed in PBS and lysed on ice for 30 minutes using CelLytic M lysis reagent (Sigma, cat. C2978) supplemented with protease inhibitor cocktail (calbiochem, cat 539134). Cells were spun down and some of supernatants was saved for input and the rest was immunoprecipitated overnight using anti-FLAG M2beads (Sigma, cat. A2220) that were pre-equilibrated with the same buffer. […]
# Immunoblotting: For co-immunoprecipitation study, eluted protein lysates were separated using pre-casted 10% sodium dodecyl sulfate-polyacrylamide gel electrophoresis SDS-PAGE gel (Bio-rad). […] Secondary anti-HRP rabbit antibody was used at 1:5000 dilution (GE healthcare) and chemiluminescent signal was detected using enhanced chemiluminescence (ECL) substrate (thermo Fisher Scientific) and autoradiography. […]
# BC-3 PEL cell line [7] = conditions: BC-3, KSHV+; read-out: PU-H71 LC50; cited from earlier work
# BC-1 PEL cell line = conditions: BC-1, KSHV+/EBV+; read-out: PU-H71 LC50; cited from earlier work
# BCBL-1 PEL cell line = conditions: BCBL-1, KSHV+; read-out: PU-H71 LC50; cited from earlier work
# [8] = tested on: Namalwa Burkitt lymphoma cell line; conditions: EBV+, read-out: PU-H71 LC50; cited from earlier work
# BC-2 PEL cell line = conditions: BC-2, KSHV+/EBV+; read-out: PU-H71 LC50; cited from earlier work
SMILES,CC50 (BC-3 PEL cell line [3]) [µM],CC50 (in vitro) [µM],other results
CC[C@H](C)[C@H](NC(=O)[C@H](CC(C)C)NC(=O)[C@H](CCC(=O)O)NC(=O)[C@H](CC(=O)O)NC(=O)[C@@H](NC(=O)[C@H](CCCCn1cc(COCc2cn(CCCC[C@H](NC(=O)[C@H](CC(C)C)NC(=O)[C@H](CCCNC(=N)N)NC(=O)[C@H](CCCNC(=N)N)NC(=O)[C@@H](NC(=O)[C@H](CCC(=O)NC3CCCCC3)NC(=O)[C@H](CCC(=O)O)NC(=O)[C@H](Cc3c[nH]c4ccccc34)NC(=O)[C@H](CC(C)C)NC(=O)[C@H](CCC(N)=O)NC(=O)[C@H](CCCNC(=N)N)NC(=O)[C@@H](NC(=O)[C@H](Cc3c[nH]c4ccccc34)NC(=O)[C@H](CCC(=O)O)NC(C)=O)[C@@H](C)CC)[C@@H](C)CC)C(N)=O)nn2)nn1)NC(=O)[C@H](CCCNC(=N)N)NC(=O)[C@H](Cc1ccccc1)NC(=O)[C@H](CC(C)C)NC(=O)[C@H](CCCNC(=N)N)NC(=O)[C@H](Cc1c[nH]cn1)NC(=O)[C@@H](NC(=O)[C@H](CCC(=O)O)NC(C)=O)[C@@H](C)CC)[C@@H](C)CC)C(=O)N[C@@H](CCCNC(=N)N)C(N)=O [CHD3^NEMO],–,–,"cellular uptake at cold temperatures and with sodium azide (BC-1 cells; 4° C., 10 mM sodium azide): reduction in cellular uptake; remaining at 24 h, 60 μM (Serum stability assay): ~80%; conformational stability (helix percentage vs temperature) [1]: retain a significant proportion of helix percentage at high temperatures; observed toxicity [2]: without any observed toxicity"
CCOc1ccc2nc3cc(N)ccc3c(N)c2c1 [Compound 2],12.2,7.7,–
c1ccc2c(c1)Nc1ccccc1S2 [Compound 3],62.7,63,–
CN(Cc1ccc2cccnc2c1)S(=O)(=O)c1cccs1 [Compound 4],> 100,> 100,–
Cc1cc(CNC(=O)NC2CCCC2)cc(C)c1O [Compound 5],> 100,> 100,–
CC(=O)N1CCc2cc(C(=O)C(C)Oc3ccc(C#N)cc3Cl)ccc21 (stereo not drawn) [Compound 6],35.9,69.7,–
O=C(C1CCCN1c1ncccn1)N1CCc2c(Cl)cccc2C1 (stereo not drawn) [Compound 7],39.9,31.6,–
Cc1cccc(-c2cccc(CNC(=O)NCCS(C)(=O)=O)c2)c1 [Compound 8],> 100,> 100,–
CCCCC(CC)CNC(=N)NC(=N)NCCCCCCNC(=N)NC(=N)NCC(CC)CCCC (stereo not drawn) [Compound 9],3.9,3.8,–
CC[C@H](C)[C@H](NC(=O)[C@H](CC(C)C)NC(=O)[C@H](CCC(=O)O)NC(=O)[C@H](CC(=O)O)NC(=O)[C@@H](NC(=O)[C@H](CCCCn1cc(COCc2cn(CCCC[C@H](NC(=O)[C@H](CC(C)C)NC(=O)[C@H](CCCNC(=N)N)NC(=O)[C@H](CCCNC(=N)N)NC(=O)[C@@H](NC(=O)[C@H](CCC(=O)NC3CCCCC3)NC(=O)[C@H](CCC(=O)O)NC(=O)[C@H](Cc3c[nH]c4ccccc34)NC(=O)[C@H](CC(C)C)NC(=O)[C@H](CCC(N)=O)NC(=O)[C@H](CCCNC(=N)N)NC(=O)[C@@H](NC(=O)[C@H](Cc3c[nH]c4ccccc34)NC(=O)[C@H](CCC(=O)O)NC(=O)CCNC(=S)Nc3ccc4c(c3)C(=O)OC43c4ccc(O)cc4Oc4cc(O)ccc43)[C@@H](C)CC)[C@@H](C)CC)C(N)=O)nn2)nn1)NC(=O)[C@H](CCCNC(=N)N)NC(=O)[C@H](Cc1ccccc1)NC(=O)[C@H](CC(C)C)NC(=O)[C@H](CCCNC(=N)N)NC(=O)[C@H](Cc1c[nH]cn1)NC(=O)[C@@H](NC(=O)[C@H](CCC(=O)O)NC(C)=O)[C@@H](C)CC)[C@@H](C)CC)C(=O)N[C@@H](CCCNC(=N)N)C(N)=O [FITC-CHD3^NEMO],–,–,"binding to wild-type NEMO coiled coil (full length NEMO): failed to bind wild-type NEMO coiled coil; time to enter BC-1 cells (BC-1 cells; 500 nM FITC-labeled peptide, 37° C.): ≤ 30 min"
CC(C)NCCCn1c(Sc2cc3c(cc2I)OCO3)nc2c(N)ncnc21 [PU-H71],–,–,sensitivity of vFLIP-negative Namalwa cells [4]: showed sensitivity; sensitivity of PEL cell lines [5]: showed sensitivity; disruption of vFLIP/NEMO complex (NEMO pulled down by FLAG beads) [6]: disrupted the complex and destabilized both vFLIP and NEMO; CC50 (BC-3 PEL cell line [7]): 0.0634 µM; CC50 (BC-1 PEL cell line): 0.0369 µM; CC50 (BCBL-1 PEL cell line): 0.217 µM; CC50 [8]: 0.337 µM; CC50 (BC-2 PEL cell line): 0.0271 µM
